The text below walks through data of patent US6657061B2, “Polymorphic forms of 6-[4-1(1-cyclohexyl-1H-tetrazol-5-yl)butoxy]-3,4-dihydro-2(1H)-quinolinone” (priority 2001, dated 2003).

For data set [1] the following is noted: Form A as prepared by the procedures of the '479 patent; cited from earlier work.
The conditions of data set [2]: Form A as prepared by the procedures of the '479 patent; cited from earlier work. The source holds these as a separate data set.
Data set [3] in a line: stability of the polymorphic form (statement only). It counts as physicochemical. The following applies: solid form; test conditions not given.
A short description of data set [4]: DSC thermogram of combined Forms A, B and C; relative solubility inferred from melting points. Type of data set: physicochemical. The following applies: suggested by the lower DSC melting point (weaker crystal packing forces), not measured directly. An excerpt:
Characterization of Form A of cilostazol, Form B of cilostazol, and Form C of cilostazol was further completed using DSC thermograms, shown in FIGS. 3, 4, and 5, respectively, with DSC thermograms for combinations of Form A and Form B; Form B and Form C; and Forms A, B, and C are shown in FIGS. 6, 7, and 8 respectively. DSC data were generated using a Mettler-Toledo DSC 821^e (Columbus, Ohio) with a Julabo FT900 intercooler chiller (Julabo Company; Allentown, Pa.). In general, samples were analyzed in a vented, sealed aluminum pan. Because the endothermic peak may vary depending upon the rate of heating and the calibration and precision of the instrument, with the amount of peak variation dependent upon the heating rate used, all thermograms included herein were run under the same, consistent conditions: heating at 10° C. per minute under a nitrogen purge at 40 mL/minute.
FIG. 8 illustrates a DSC thermogram for the combination of Form A, Form B and Form C having a second heating cycle with a maximum temperature of about 110° C. with a holding time of about 30 minutes. The peaks in the third heating cycle show a Form A to Form B to Form C peak area ratio of approximately 8:2:1, respectively, with the relative amount of Form A, Form B and Form C further variable on the heat of enthalpy of each polymorphic form.

Consider `O=C1CCc2cc(OCCCCc3nnnn3C3CCCCC3)ccc2N1` [Form A, 6-[4-(1-cyclohexyl-1H-tetrazol-5-yl)butoxy]-3,4-dihydro-2(1H)-quinolinone], for which, in data set [1], the aqueous solubility result is given as “low”. Moreover, the bioavailability entry in data set [2] was “low”.
For `O=C1CCc2cc(OCCCCc3nnnn3C3CCCCC3)ccc2N1` [Form B, 6-[4-(1-cyclohexyl-1H-tetrazol-5-yl)butoxy]-3,4-dihydro-2(1H)-quinolinone], in data set [3], the stability of polymorph result is “stable”. Also, in data set [4], the “solubility relative to Form A” value is “more soluble than Form A”.
